The results in this text go back to US9434743B2, “Indazole derivatives” (TAKEDA PHARMACEUTICAL COMPANY LIMITED, priority 2012, dated 2016).

By IC50 is commonly meant the point on the concentration scale where inhibition reaches its midpoint. Lower therefore signals greater potency in that assay.

For assay [1], the target named is T1, human MetAP2 enzyme (Homo sapiens, UniProt P50579). Put plainly: MetAP2 enzyme assay, enzyme complexed with manganese ions. As to conditions: MetAP2 Mn pIC50, MetAP2 enzyme complexed with manganese ions; Met-AMC substrate at Km.
T1 sequence (P50579 whole entry): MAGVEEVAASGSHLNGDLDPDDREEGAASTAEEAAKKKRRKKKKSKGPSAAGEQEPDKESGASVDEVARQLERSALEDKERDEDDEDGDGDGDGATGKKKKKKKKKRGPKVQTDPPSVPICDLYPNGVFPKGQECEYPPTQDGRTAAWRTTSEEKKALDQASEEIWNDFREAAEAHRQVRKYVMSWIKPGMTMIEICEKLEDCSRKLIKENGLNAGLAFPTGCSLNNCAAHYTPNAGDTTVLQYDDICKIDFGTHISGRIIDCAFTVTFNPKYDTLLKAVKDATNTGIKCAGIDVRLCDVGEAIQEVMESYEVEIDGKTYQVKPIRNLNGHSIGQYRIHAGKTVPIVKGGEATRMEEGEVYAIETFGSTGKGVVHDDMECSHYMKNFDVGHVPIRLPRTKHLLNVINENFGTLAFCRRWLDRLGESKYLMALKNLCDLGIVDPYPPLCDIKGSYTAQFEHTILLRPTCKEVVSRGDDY
Assay [2] has as its target T1, human MetAP2 enzyme. Put plainly: MetAP2 enzyme assay, enzyme complexed with cobalt ions. The note with it: MetAP2 Co pIC50, MetAP2 enzyme complexed with cobalt ions; Met-AMC substrate at Km.

`Nc1nc(Cl)ncc1-c1cc(C(F)(F)F)cc2[nH]ncc12` [Example 191, 2-chloro-5-(6-(trifluoromethyl)-1H-indazol-4-yl)pyrimidin-4-amine]: the IC50 at human MetAP2 enzyme [1] is 25.1 nM; against human MetAP2 enzyme [2] it was 794 nM.
Taken in the same sequence, the figures for `Cn1cc(-c2cc(C(F)(F)F)cc3[nH]ncc23)c(CO)n1` [Example 220, (1-methyl-4-(6-(trifluoromethyl)-1H-indazol-4-yl)-1H-pyrazol-3-yl)methanol] were 6.31 nM and 79.4 nM.
The corresponding values for `Cc1nc2ccccn2c1-c1cc(C(F)(F)F)cc2[nH]ncc12` [Example 150, 4-(2-methylimidazo[1,2-a]pyridin-3-yl)-6-(trifluoromethyl)-1H-indazole] are 251 nM and 794 nM.
The corresponding values for `NC(=O)c1ccc(-c2cc(C(F)(F)F)cc3[nH]ncc23)c(F)c1` [Example 321, 3-fluoro-4-(6-(trifluoromethyl)-1H-indazol-4-yl)benzamide] are 15.8 nM and 20 nM.
`CCOC(=O)Cn1cc(-c2cc(C(F)(F)F)cc3[nH]ncc23)cn1` [Example 260, ethyl 2-(4-(6-(trifluoromethyl)-1H-indazol-4-yl)-1H-pyrazol-1-yl)acetate]: the IC50 against human MetAP2 enzyme [1] is 6.31 nM; at human MetAP2 enzyme [2], 100 nM.
The corresponding values for `Cc1c(C(=O)NCCO)cc(-c2cc(C(F)(F)F)cc3[nH]ncc23)c(=O)n1C` [Example 404, N-(2-hydroxyethyl)-1,2-dimethyl-6-oxo-5-(6-(trifluoromethyl)-1H-indazol-4-yl)-1,6-dihydropyridine-3-carboxamide] are 12.6 nM and 251 nM.
`COc1ccc(C(=O)N2CC(O)C2)cc1-c1cc(C(F)(F)F)cc2[nH]ncc12` [Example 328, (3-hydroxyazetidin-1-yl)(4-methoxy-3-(6-(trifluoromethyl)-1H-indazol-4-yl)phenyl)methanone]: the IC50 against human MetAP2 enzyme [1] and at human MetAP2 enzyme [2] was 12.6 nM in each case.
In the case of `Cn1cc(C(=O)NCC(F)F)cc(-c2cc(C(F)(F)F)cc3[nH]ncc23)c1=O` [Example 355, N-(2,2-difluoroethyl)-1-methyl-6-oxo-5-(6-(trifluoromethyl)-1H-indazol-4-yl)-1,6-dihydropyridine-3-carboxamide], the values for the 50% inhibitory concentration (IC50) at human MetAP2 enzyme [1] and at human MetAP2 enzyme [2] were 5.01 nM and 316 nM, respectively.
Taken in the same sequence, the figures for `CN1CCN(C(=O)c2cc(-c3cc(C(F)(F)F)cc4[nH]ncc34)cnc2N)CC1` [Example 282, (2-amino-5-(6-(trifluoromethyl)-1H-indazol-4-yl)pyridin-3-yl)(4-methylpiperazin-1-yl)methanone] were 6.31 nM and 50.1 nM.
The corresponding values for `O=C1Cc2c(cccc2-c2cc(C(F)(F)F)cc3[nH]ncc23)N1` [Example 129, 4-(6-(trifluoromethyl)-1H-indazol-4-yl)indolin-2-one] are 3.98 nM and 10 nM.
Taken in the same sequence, the figures for `NC(=O)c1ncc(-c2cc(C(F)(F)F)cc3[nH]ncc23)cn1` [Example 295, 5-(6-(trifluoromethyl)-1H-indazol-4-yl)pyrimidine-2-carboxamide] were 6.31 nM and 200 nM.
In the case of `Cc1c(-c2cc(C(F)(F)F)cc3[nH]ncc23)cnn1-c1ccccc1` [Example 70, 4-(5-methyl-1-phenyl-1H-pyrazol-4-yl)-6-(trifluoromethyl)-1H-indazole], on human MetAP2 enzyme [2], the IC50 is 39.8 nM.
On the same count and under the same terms, for `Cc1nn(C)c2cc(-c3cc(C(F)(F)F)cc4[nH]ncc34)ccc12` [Example 67, 1′,3′-dimethyl-6-(trifluoromethyl)-1H,1′H-4,6′-biindazole] the value was 20 nM; for `Cc1c(-c2cc(C(F)(F)F)cc3[nH]ncc23)cnn1-c1ccccc1` [Example 71, 4-(5-methyl-1-phenyl-1H-pyrazol-4-yl)-6-(trifluoromethyl)-1H-indazole], 100 nM; for `Cc1nn(C)c2cc(-c3cc(C(F)(F)F)cc4[nH]ncc34)ccc12` [Example 68, 1′,3′-dimethyl-6-(trifluoromethyl)-1H,1′H-4,6′-biindazole], 25.1 nM.
